Reference: patent US20210029998A1, “ACIDIC ANTIMICROBIAL COMPOSITION” (The Procter & Gamble Company, priority 2019, published 2021)
Where a name gives a salt, the structure may show the parent alone.

Test system: Staphylococcus aureus (S. aureus—ATCC #6538)
Test: Minimum Biocidal Concentration (MBC) in suspension
Assay type: cell-based
Method: B) Antibacterial Efficacy (Minimum Biocidal Concentration in Suspension) The antimicrobial efficacy of the antimicrobial agent in the composition is determined by measuring its Minimum Biocidal Concentration (MBC). The MBC is defined as the lowest absolute concentration of the particular antimicrobial active which provides complete kill (zero bacterial growth). The MBC of the compositions herein is determined against the bacterium, Staphylococcus aureus (S. aureus—ATCC #6538), a gram positive bacterium, These microorganisms are representative of natural contaminants in many consumer and industrial applications. The bacteria inoculum is prepared by transferring several colonies from a Tryptone Soy Agar (TSA) plate to a saline solution (0.85% NaCl) comprising 5% of horse serum as additional soil load when indicated, the bacteria concentration in this saline solution is determined by measuring the % Transmittance at 425 nm and adjusted by either adding more bacteria or more saline solution until the % Transmittance at 425 nm is between 23-25% which corresponds to a bacteria concentration of 10^8 CFU/ml. The antimicrobial agent was added to the composition at a level of 1000 ppm, 500 ppm, or 200 ppm, or 100 ppm or 50 ppm. 200 μL of the antimicrobial hard surface cleaning composition was dosed into one well of row A of a 96 well microtiter plate. Each subsequent well (rows B to G) were dosed with 100 μL of the same hard surface cleaning composition, without the addition of the antimicrobial agent. 100 μL of the antimicrobial hard surface cleaning composition was transferred from row A to row B and mixed. 100 μL of the composition was then transferred from row B to row C and mixed, and the process repeated to row G. As such, the concentration of the antimicrobial agent underwent two-fold dilution in adjacent wells, while the concentration of the other actives in the hard surface cleaning composition remained constant across all the wells in the same column. 10 μL of the 10^8 CFU/ml bacteria suspension in saline was added to wells A to F of the microtiter plate with row G kept as a nil bacteria control. The final volume in each well was 110 μL, except for row G which comprised 100 μL of the hard surface cleaning composition and no bacteria suspension. Bacterial inoculation to each column was staggered by 30 seconds to allow for equal incubation times in all wells so that the contact time between the bacteria and the antimicrobial active for all samples was 6 mins. After this contact time, 10 μL of each test solution was transferred to 90 μL of neutraliser solution (Modified Letheen Broth+1.5% Polysorbate 80, supplied by BioMérieux) to stop the antimicrobial action of the antimicrobial active matching the stagger of the inoculation. 2 μL of this solution was plated onto a TSA plate matching the stagger of the inoculation so that all samples are exposed to the neutralizer for the same period of time. The plate is incubated at 32.5° C. for 48 h for S. aureus. MBC concentration is taken as the lowest concentration of the antimicrobial active at which no visible colony growth is observed on the TSA plate. The antibacterial efficacy of the bispyridinium alkane octenidine hydrochloride was compared to that of the quaternary ammonium compound n-alkyl dimethyl benzyl ammonium chloride/n-alkyl dimethyl ethylbenzyl ammonium chloride (BTC®2125-Stepan) in acidic compositions comprising 1% of the indicated surfactant. Compositions were acidified using either an inorganic acid (hydrochloric acid) or an organic acid (citric acid). The minimal biocidal concentration (MBC) in suspension of each antibacterial active against a gram positive bacterium (Staphylococcus aureus) was measured in the presence of 5% horse serum to mimic stressed soiled conditions. Contact time was 6 minutes except for the composition with 1% of dodecyldimethyl amine oxide that was 30 seconds.

CCCCCCCCN=c1ccn(CCCCCCCCCCn2ccc(=NCCCCCCCC)cc2)cc1 [Octenidine, octenidine dihydrochloride]
MBC (ATCC6538, 0.1 h, pH 3.83, acidic composition with 1% w/v D-glucopyranose oligomeric decyl octyl glucoside (Triton CG 50), citric acid, pH 3.83, 5% horse serum, contact time 6 minutes): 62.5 µg/mL
MBC (ATCC6538, 0.1 h, pH 3.83, acidic composition with 1% w/v cocoamidopropyl hydroxysultaine (Mackam SB 50), HCl, pH 3.83, 5% horse serum, contact time 6 minutes): 62.5 µg/mL
MBC (ATCC6538, 0.1 h, pH 3.86, acidic composition with 1% w/v C9-C11 alcohol EO8 (Neodol 91-8), HCl, pH 3.86, 5% horse serum, contact time 6 minutes): 62.5 µg/mL
MBC (ATCC6538, 0.1 h, pH 3.86, acidic composition with 1% w/v C10 EO5 alcohol ethoxylate (Lutensol ON 50), HCl, pH 3.86, 5% horse serum, contact time 6 minutes): < 31 µg/mL
MBC (ATCC6538, 0.1 h, pH 3.87, acidic composition with 1% w/v 2-ethylhexyl PO5EO6 alkylalkoxylate (Ecosurf EH6), HCl, pH 3.87, 5% horse serum, contact time 6 minutes): < 31 µg/mL
MBC (ATCC6538, pH 3.88, acidic composition with 1% w/v dodecyl dimethyl amine oxide (Empigem OB), citric acid, pH 3.88, 5% horse serum, contact time 30 seconds): 62.5 µg/mL
